We go through one molecule from patent publication US20100293626A1, “METHODS FOR IMPROVEMENT OF BIRTH RATES IN CANIDAE ON SOMATIC CELL NUCLEAR TRANSFER” (SEOUL NATIONAL UNIVERSITY INDUSTRY FOUNDATION, priority 2007, published 2010).

Structures are written as SMILES.

For assay [1], the system named is reconstructed oocytes (canine cloned embryos). The assay is described as follows: Nuclear remodeling of reconstructed oocytes after somatic cell nuclear transfer with roscovitine-treated donor cells. The class given is cell-based, dog. On the procedure: Before performing somatic cell nuclear transfer, the cells were thawed and cultured for 24 hours in a medium supplemented with 15 μM roscovitine (i.e., DMEM+10% FBS+15 μM roscovitine). Then, the cells were treated with trypsin for about 2 minutes during somatic cell nuclear transfer and collected from the monolayer.
The nuclear donor cells prepared in Example 3 were microinjected into the enucleated oocytes prepared in Example 2. The nuclear donor cells were microinjected into a perivitelline space of the enucleated oocytes in the following manner. The enucleated oocytes were treated with […] phytohemagglutinin in the medium of Table 1, and the slit of the enucleated oocytes was held with a holding pipette. Then, a transfer pipette was inserted into the slit, and the single cells isolated from fibroblasts in Example 3 were injected between the cytoplasm and zona pellucida of the enucleated oocytes by the transfer pipette.
Then, the nuclear donor cell-oocyte couplets were placed in a fusion medium (containing 0.26 M mannitol, 0.1 mM MgSO4, 0.5 mM HEPES and 0.05% BSA) and interposed between two parallel electrodes attached to a micromanipulator (Nikon-Narishige, Japan). Then, the fusion of the couplets was induced by electrical stimulation applied twice at a voltage of 4 kV/cm for 15 μs using an electro-cell fusion apparatus (NEPA GENE Co., Chiba, Japan).
After 1 hour of electrical stimulation, the fusion of the nuclear donor cells with the oocyte cytoplasm was observed under a stereomicroscope. The fused embryos were selected and cultured for 1.5-4 hours in TCM-199 (Table 2) supplemented with 10% (v/v) FBS.
The nuclear transfer embryos obtained in Example 4 were cultured in mSOF containing 10 μM ionophore (Sigma) at 39° C. for 4 minutes, thus inducing the activation of the nuclear transfer embryos. Then, the nuclear transfer embryos were washed and further cultured in mSOF (Table 3) supplemented with 1.9 mM 6-dimethylaminopurin for 4 hours.
After performing canine somatic cell nuclear transfer into the enucleated oocytes using the microinjection method, the difference in the formation and change of nuclei between a control group not treated with roscovitine and a group treated with roscovitine for 24 hours, was examined.

For a further assay, the system named is surrogate mothers. Briefly: Pregnancy rate after transfer of nuclear transfer embryos into surrogate mothers. The class given is in vivo, dog. On the procedure: The nuclear transfer embryos from Example 5 were surgically transferred into the oviduct of estrus synchronized surrogate mothers. The transfer was carried out within 4 hours after the activation of the nuclear transfer embryos. […] For the transfer, the surrogate mothers were anesthetized by vascular injection with 0.1 mg/kg acepromazine and 6 mg/kg propofol, and maintained at the anesthetized state using 2% isoflurane. Operation area of the anesthetized female dogs was aseptically operated and incised on the center of the abdomen according to general laparotomy so as to expose the oviduct. The abdominal cavity was stimulated by hand to draw the ovary, the oviduct and the uterus to the incision. The mesovarium of the drawn ovary was carefully handled to recognize the opening of the oviduct, and a 3.5 F Tom cat catheter (Sherwood, St. Louis, Mo.) equipped with a 1.0 ml tuberculin syringe (Latex free, Becton Dickinson & CO. Franklin lakes, N.J. 07417) was inserted into the oviduct to secure a sufficient space in the front of the catheter. Then, the nuclear transfer embryos were injected into the oviduct through the catheter. Whether the nuclear transfer embryos were successfully injected was observed under a microscope. The abdominal suture was performed with an absorbable suture material, and then, skin suture was performed. To prevent post-surgery infection, a broad range of antibiotic was injected for 3 days.
At 23 days after transferring the nuclear transfer embryos into the surrogate mothers, pregnancies were detected using a SONOACE 9900 (Medison Co. LTD, Seoul, Korea) ultrasound scanner with an attached 7.0 MHZ linear probe. Pregnancy was monitored by ultrasound every 2 weeks after initial confirmation. As a result, it was confirmed that the dogs had become pregnant, and the cloned dogs were produced by inducing natural delivery or performing Cesarean section. […]

The mark [2] stands for this setting: 1 hpf, donor cells treated with roscovitine for 24 hours.
Setting [3] is: 4 hpa, donor cells treated with roscovitine for 24 hours.

`CC[C@@H](CO)Nc1nc(NCc2ccccc2)c2ncn(C(C)C)c2n1` [roscovitine]: the “No. of reconstructed oocytes with IN (intact nucleus)” value in assay [1] (1 hpf (hour post fusion), donor cells treated with roscovitine for 24 hours) came out at 11. For the same molecule, in assay [1] (setting [2]), the “IN (%) for reconstructed oocytes” value is “(32.3 ± 7.0) %”, the “No. of reconstructed oocytes with NE (nuclear enlargement)” value is reported as 0, the “No. of reconstructed oocytes with NS (nuclear swelling)” value is 0 and the “No. of reconstructed oocytes with PCC (premature chromosome condensation)” value was 23. The “PCC (%) for reconstructed oocytes” value in assay [1] (setting [2]) was “(67.6 ± 7.0) %”. In assay [1] (4 hpa (hour post activation), donor cells treated with roscovitine for 24 hours), the “No. of reconstructed oocytes with IN (intact nucleus)” value came out at 0. Further, in assay [1] (setting [3]), the “NE (%) for reconstructed oocytes” value is “(23.6 ± 7.5) %”, the “NS (%) for reconstructed oocytes” value is on record as “(73.6 ± 7.5) %”, the “No. of reconstructed oocytes with NE (nuclear enlargement)” value is on record as 9 and the “No. of reconstructed oocytes with NS (nuclear swelling)” value came to 28. In assay [1] (setting [3]), the “No. of reconstructed oocytes with PCC (premature chromosome condensation)” value was found to be 1 and the “PCC (%) for reconstructed oocytes” value is reported as “(2.6 ± 3.3) %”. Further, the “Nuclear swelling (NS) compared with control group, in words” value in assay [1] (4 hours after activation of the fused embryos) is listed as “occurred more in the treated group than in the control group”. Also, in assay [1] (after electrical fusion (1 hour elsewhere in the source)), the “Rate of premature chromosome condensation (PCC) compared with control group, in words” value is “at a rate significantly higher than that in the control group”. Moreover, the “No. of pregnant mothers” value with surrogate mothers (556 embryos transferred into 29 surrogate mothers, donor cells treated with roscovitine) amounted to 11. In addition, the “Pregnancy rate (based on transfer embryos)” value in the assay on surrogate mothers (556 transfer embryos) was 3.95%. Moreover, the “Pregnancy rate compared with control, in words” value with surrogate mothers (somatic cell nuclear transfer after treatment with roscovitine) was “very significantly increased”.
